# According to patent US20240409963A1, “Use of Inhibitors to Increase Efficiency of Crispr/CAS Insertions” (AstraZeneca AB, priority 2021, published 2024):
# Legend:
# [1] = system: HEK293T cells; assay: CRISPR/Cas9 double-strand break repair pathway and knock-in analysis (RIMA, amplicon sequencing), Examples 1-3; format: cell-based
# Experimental: (§1) The effect of inhibitors of the MMEJ and NHEJ pathways on CRISPR-Cas-induced DNA double stranded break repair pathways was examined using the process shown schematically in FIG. 2A. Briefly, HEK293T cells were seeded into a 96-well plate 20 hours before transfection with plasmids encoding SpCas9 and a guide RNA (sgRNA) targeting CD34 together with a single-stranded oligonucleotide donor (ssDNA). […] The Pol Q inhibitors used are PolQ_2, PolQ_3, PolQ_4, PolQ_5, PolQ_6 or PolQ_7. Sixty hours post-transfection, genomic DNA was harvested and sequenced using deep-targeted amplicon sequencing. Genetic variants of the sequencing data were determined using a bioinformatic workflow, and the percentages of DNA double-stranded break repair by the MMEJ, NHEJ, and HDR pathways were determined using Rational InDel Meta-Analysis (RIMA). See, e.g., Taheri-Ghafarokhi et al, Nuc. Acids Res., 2018, 46 (16): 8417-8434. The RIMA results are plotted as shown in FIG. 2B, where deletions associated with microhomologies are visualized according to the bars shown in the figure.
# The effect of NHEJ and MMEJ inhibitors on the CRISPR/Cas-mediated knock-in efficiency was determined in both mutated and mapped reads.
# The effect of MMEJ pathway inhibition on mutated and mapped reads was assessed.
# [2] = system: HEK293T cells; assay: Cell confluency and transfection efficiency in CRISPR/Cas-transfected cells, Example 4; format: cell-based; conditions: AZD7648 at a final concentration of 1 mM, FIG. 10
# Experimental: as §1
# HEK293T cells were cultured, transfected, and treated with NHEJ and MMEJ inhibitors as described in Example 1. Cell confluency and transfection efficiency was assessed in transfected cells treated with NHEJ and MMEJ inhibitors.
# [3] = system: induced Pluripotent Stem Cells (iPSC); assay: Double-strand break repair pathways in Cas9-inducible iPSCs, Example 5; format: cell-based; conditions: single inhibitor: AZD7648 1 μM or PolQ inhibitor 3 μM, vs DMSO, FIG. 12
# Experimental: (§2) The effect of NHEJ and/or MMEJ pathway inhibition on CRISPR-Cas-induced DNA double stranded break repair pathways in iPSCs was examined. Briefly, iPSCs comprising an inducible Cas9 gene were seeded into a 96-well plate 20 hours before transfection with a plasmid encoding a guide RNA (sgRNA) targeting one of three separate target sites together with a single-stranded oligonucleotide donor (ssDNA), followed by induction of Cas9 expression. […] Sixty hours post-transfection, the percentage of double-stranded break repair by the HDR, NHEJ, and MMEJ pathways was determined as discussed in Example 1.
# [4] = system: Cas9-inducible iPSCs; assay: SSTR-mediated gene knock-in in Cas9-inducible iPSCs, Example 6; format: cell-based; conditions: single inhibitor, mapped reads, FIG. 13
# Experimental: as §2
# The effect of NHEJ and MMEJ pathway inhibition on gene knock-in efficiency mediated by the SSTR pathway in iPSCs was investigated. Briefly, Cas9-inducible iPSCs were cultured and transfected with sgRNA and ssDNA polynucleotides as described in Example 5.
# [5] = system: HEK293T cells; assay: PolQ2 and PolQ6 on precise gene editing outcome at various target-sites, Example 9; format: cell-based; conditions: DNAPK inhibitor 1 μM, PolQ inhibitor 0 μM; for MMEJ indels Mean / NHEJ indels Mean / Total editing Mean: HEK293T, ssDNA donor; for Precise KI fold increase: vs DMSO
# Experimental: (§3) HEK293T cells were seeded into 96-well plates and allowed to attach for 20 hours.
# [6] = system: HEK293T cells; assay: PolQ inhibitor ART558 titration on precise gene editing outcomes, Example 10; format: cell-based; conditions: DNAPK inhibitor 1 μM, PolQ inhibitor 0 μM
# Experimental: as §3
# [7] = system: HEK293T cells; assay: Off-target editing at HEK3 and HEK4 on- and off-target sites with DNAPK and PolQ inhibitors, Example 12; format: cell-based; conditions: DNAPK inhibitor 1 μM, PolQ inhibitor 0 μM
# Experimental: as §3
# [8] = system: HEK293T cells; assay: Different DNAPK inhibitors on precise gene editing outcomes, Example 8; conditions: for HDR to indel ratio / Precise KI fold increase: gINS + ssDNA; for Precise KI fold increase: vs DMSO; for MMEJ indels Mean / NHEJ indels Mean / Total editing Mean: sgRNA CD34 (gINS) + ssDNA, 70 hours post-transfection;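 for all read-outs here: cells transfected with plasmids for SpCas9-EGFP, editing outcomes quantified from genomic DNA by deep targeted amplicon sequencing with bioinformatic analysis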
# Experimental: Cells allowed to attach for 12 hours before transfection. Cells were transfected with DNA plasmids encoding for SpCas9-EGFP and a sgRNAs targeting CD34 (gINS) in the presence of single-stranded oligonucleotide donor (ssDNA). 70 hours post-transfection cell confluence and EGFP-based transfection efficiencies were determined with the Incucyte S3. Genomic DNA was extracted and editing outcome was analysed through deep-targeted amplicon sequencing using bioinformatic analysis.
# [9] = SpCas9 + sgRNA CD34 + ssDNA, AZD7648 1 μM alone or in combination with Pol Q inhibitors, vs DMSO controls, FIG. 4
# [10] = HEK293T, sgRNA CD34 (gMEJ) + ssDNA
smiles,measurement,setting,value
Cc1cc2ncnn2cc1Nc1ncc2c(n1)n(C1CCOCC1)c(=O)n2C [AZD7648],CRISPR/Cas-mediated editing efficiency,"[1]; AZD7648 1 μM alone and in combination with Pol Q inhibitors, FIG. 5",did not affect
same,double-strand break repair by the HDR pathway,[1]; [9],marked in increase
same,repair by the MMEJ and NHEJ pathways,[1]; [9],decreased
same,cell confluency,[2],no significant effect
same,double-strand break repair by the HDR pathway,[3],marked in increase
same,repair by the MMEJ and NHEJ pathways,[3],decreased
same,SSTR-mediated gene knock-in at all three target sites,[4],increased
same,MMEJ indels Mean,[5]; target-site gDel,8.9
same,NHEJ indels Mean,[5]; target-site gDel,1.3
same,Total editing Mean,[5]; target-site gDel,77.3
same,MMEJ indels Mean,[5]; target-site gMej,27.9
same,NHEJ indels Mean,[5]; target-site gMej,2.9
same,Total editing Mean,[5]; target-site gMej,83.1
same,MMEJ indels Mean,[5]; target-site glns,13.3
same,NHEJ indels Mean,[5]; target-site glns,1.3
same,Total editing Mean,[5]; target-site glns,83.0
same,KI to indel ratio,[5]; target-site gDel,4.0
same,Precise KI fold increase,[5]; target-site gDel,2.5 fold
same,KI to indel ratio,[5]; target-site gMej,1.0
same,Precise KI fold increase,[5]; target-site gMej,2.2 fold
same,KI to indel ratio,[5]; target-site glns,3.3
same,Precise KI fold increase,[5]; target-site glns,3.3 fold
same,MMEJ indels Mean,[6]; [10],32.6
same,NHEJ indels Mean,[6]; [10],1.3
same,Total editing Mean,[6]; [10],74.4
same,KI to indel ratio,[6]; gMEJ + ssDNA,0.7
same,OT1 off-target editing Mean,[7]; HEK3 nodonor,41.9
same,OT2 off-target editing Mean,[7]; HEK3 nodonor,32.5
same,OT3 off-target editing Mean,[7]; HEK3 nodonor,16.3
same,OT4 off-target editing Mean,[7]; HEK3 nodonor,0.3
same,on-target editing Mean,[7]; HEK3 nodonor,73.8
same,OT1 off-target editing Mean,[7]; HEK3 ssDNA,17.7
same,OT2 off-target editing Mean,[7]; HEK3 ssDNA,12.7
same,OT3 off-target editing Mean,[7]; HEK3 ssDNA,7.6
same,OT4 off-target editing Mean,[7]; HEK3 ssDNA,0.1
same,on-target editing Mean,[7]; HEK3 ssDNA,61.5
same,OT1 off-target editing Mean,[7]; HEK4 nodonor,12.7
same,OT2 off-target editing Mean,[7]; HEK4 nodonor,7.3
same,OT3 off-target editing Mean,[7]; HEK4 nodonor,36.3
same,on-target editing Mean,[7]; HEK4 nodonor,9.8
same,OT1 off-target editing Mean,[7]; HEK4 ssDNA,5.4
same,OT2 off-target editing Mean,[7]; HEK4 ssDNA,3.3
same,OT3 off-target editing Mean,[7]; HEK4 ssDNA,18.2
same,on-target editing Mean,[7]; HEK4 ssDNA,15.6
same,HDR to indel ratio,[8]; DNAPK inhibitor 0.3125 μM,0.3
same,Precise KI fold increase,[8]; DNAPK inhibitor 0.3125 μM,1.4 fold
same,HDR to indel ratio,[8]; DNAPK inhibitor 0.625 μM,0.5
same,Precise KI fold increase,[8]; DNAPK inhibitor 0.625 μM,2.0 fold
same,HDR to indel ratio,[8]; DNAPK inhibitor 1.25 μM,0.6
same,Precise KI fold increase,[8]; DNAPK inhibitor 1.25 μM,2.0 fold
same,HDR to indel ratio,[8]; DNAPK inhibitor 5 μM,1.1
same,Precise KI fold increase,[8]; DNAPK inhibitor 5 μM,2.9 fold
same,HDR to indel ratio,[8]; DNAPK inhibitor 10 μM,1.1
same,Precise KI fold increase,[8]; DNAPK inhibitor 10 μM,2.8 fold
same,MMEJ indels Mean,[8]; DNAPK inhibitor 0.3125 μM,15.2
same,NHEJ indels Mean,[8]; DNAPK inhibitor 0.3125 μM,28.6
same,Total editing Mean,[8]; DNAPK inhibitor 0.3125 μM,69.5
same,MMEJ indels Mean,[8]; DNAPK inhibitor 0.625 μM,17.4
same,NHEJ indels Mean,[8]; DNAPK inhibitor 0.625 μM,18.3
same,Total editing Mean,[8]; DNAPK inhibitor 0.625 μM,66.0
same,MMEJ indels Mean,[8]; DNAPK inhibitor 1.25 μM,16.5
same,NHEJ indels Mean,[8]; DNAPK inhibitor 1.25 μM,8.7
same,Total editing Mean,[8]; DNAPK inhibitor 1.25 μM,53.3
same,MMEJ indels Mean,[8]; DNAPK inhibitor 5 μM,18.5
same,NHEJ indels Mean,[8]; DNAPK inhibitor 5 μM,2.5
same,Total editing Mean,[8]; DNAPK inhibitor 5 μM,57.5
same,MMEJ indels Mean,[8]; DNAPK inhibitor 10 μM,16.9
same,NHEJ indels Mean,[8]; DNAPK inhibitor 10 μM,2.2
same,Total editing Mean,[8]; DNAPK inhibitor 10 μM,53.7
